In US20160346255A1, “METHODS, AGENTS AND COMPOSITIONS FOR TREATMENT OF INFLAMMATORY CONDITIONS” (Betanien Hospital, priority 2014, published 2016):
Non-standard residues stand in square brackets, D forms with d. Residues, ends and D or L forms follow the SMILES beside them. *: point of attachment. dPhe(4-NHCONH2) = NC(=O)Nc1ccc(C[C@@H](N)C(=O)O)cc1; Dihydroorotyl(S) = O=C1C[C@@H](C(=O)*)NC(=O)N1; dPhe(4-Cl) = N[C@H](Cc1ccc(Cl)cc1)C(=O)O; Phe(4-NH2) = Nc1ccc(C[C@H](N)C(=O)O)cc1; d2Nal = N[C@H](Cc1ccc2ccccc2c1)C(=O)O; Lys(iPr) = CC(C)NCCCC[C@H](N)C(=O)O; d3Pal = N[C@H](Cc1cccnc1)C(=O)O

Tests used:
Format in all cases: in vivo, human
[1] = system: Patient with Lupus; assay: Lupus patient treated with degarelix (and earlier therapies)
Procedure: Example of Treating a Patient with Lupus with a GnRH Antagonist
Due to their painful condition, they have been followed up by a pain clinic. They were offered a tricyclic antidepressant, amitriptyline 25 mg in March 2014 for their painful condition.
Therefore, we decided to offer […] degarelix. GnRH antagonists have shown anti-inflammatory effects and therefore we considered that degarelix, a depot GnRH antagonist, may have a therapeutic effect in lupus. 09.15.14, […] received […] loading dose of degarelix, 240 mg s.c.
They received their second dose of degarelix in October 2014, 80 mg s.c. They continue on 80 mg s.c. every two weeks.

[2] = system: Patients with Rheumatoid Arthritis; assay: Rheumatoid arthritis patients treated with degarelix: clinical variables
From the text: Examples of Treating Patients with Rheumatoid Arthritis with a GnRH Antagonist [table] […] Examples of Patients with Continued RA Improvement Over Several Weeks Despite Stably Low Levels of LH

[3] = system: Patient with Rheumatoid Arthritis; assay: RA patient treated with degarelix and methotrexate
Procedure: • person with seropositive rheumatoid arthritis with disease duration of 16 years • Fulfilled ACR 2010 classification criteria for rheumatoid arthritis
• Previously failed 3 biologics (etanercept, Actemra, and rituximab). Last tried rituximab November 2013, but increasing disease activity and blood tests (CRP and ESR) during the months thereafter until start of degarelix 16.06.14. Concomitantly used stable methotrexate 10 mg weekly since 1999. • Started degarelix 240 mg induction dose 16.06.14, with 80 mg every 2 weeks thereafter. • Disease activity reduced and they achieved an ACR60 response by 29.09.14 under the introduction of degarelix and stable concomitant methotrexate and prednisolone. • 03.10.14 the patient's pulmonary physician stopped methotrexate treatment due to pleural thickening, and CT imaging supporting lung fibrosis which was suspected to be due to methotrexate. The patient had dyspnea which resolved once methotrexate was stopped. • By 21.11.14, the patients disease activity score had increased from 5.1 (29.9.14) to 5.7 (21.11.14), due to the discontinuation of methotrexate.

[4] = system: Patient with Systemic Sclerosis; assay: Systemic sclerosis patient treated with degarelix; conditions: for HAQ DI: baseline 1.88; for Digital tip ulcers/pitting scars: baseline 5; for Modified Rodnan Skin Score: baseline 42; for VAS Fatigue / VAS Fingertip pain/pitting scars/ulcers / VAS Gastrointestinal Symptoms / VAS Global / VAS Lung/dyspnea / VAS Pain / VAS Raynauds/vascular: baseline 100; for Sleep: baseline 2 hrs/night
From the text: • person, diagnosed with systemic sclerosis • Fulfilled the 2013 EULAR/ACR classification criteria for systemic sclerosis (1). • Diagnosis based upon Raynauds phenomenon, positive ANA, high titre anti-Scl 70 antibodies, marked skin changes typical of scleroderma, and esophageal dysmotility. • Previously tried cyclophosphamide and mycophenolate mofetil. • Progressive disease and worsening scleroderma skin features, despite therapy. • Rapid progressive cardiac disease, verified by biopsy. • Experimental treatment • 5 Dec. 2014 received first dose of degarelix, 240 mg s.c. • 9 Jan. 2015 received second dose of degarelix, 80 mg s.c.
• Digital ulcers and pitting scars are a characteristic feature of systemic sclerosis, contributing to disability and pain. They are important factors in patients' evaluations of quality of life (2). Their precise objective evaluation can be included in randomized controlled trials (3). Their pathogenesis is unclear. Histologically, there is a plug-like hyperkeratosis with parakeratosis, homogenized collagen fibers and perivascular mononuclear cell infiltration (4). […] Efficacy variables in a systemic sclerosis patient treated with a GnRH antagonist at baseline, 5 weeks and 6 weeks: […]

[5] = system: patients 1 and 2 (rheumatoid arthritis); assay: Hip bone mineral density in patients taking a GnRH antagonist
From the text: However, our data indicates the opposite.

[6] = Patient 2, 15 weeks, baseline 17
[7] = Patient 2, 15 weeks, baseline 90

CC(=O)N[C@H](Cc1ccc2ccccc2c1)C(=O)N[C@H](Cc1ccc(Cl)cc1)C(=O)N[C@H](Cc1cccnc1)C(=O)N[C@@H](CO)C(=O)N[C@@H](Cc1ccc(NC(=O)[C@@H]2CC(=O)NC(=O)N2)cc1)C(=O)N[C@H](Cc1ccc(NC(N)=O)cc1)C(=O)N[C@@H](CC(C)C)C(=O)N[C@@H](CCCCNC(C)C)C(=O)N1CCC[C@H]1C(=O)N[C@H](C)C(N)=O [degarelix] (Ac-[d2Nal][dPhe(4-Cl)][d3Pal]S[Phe(4-NH2)](Dihydroorotyl(S))[dPhe(4-NHCONH2)]L[Lys(iPr)]P[dA]-NH2)
Total urinary protein ([1]; 7 Nov. 2014, 15 Sep. 2014 0.78): 0.17 g/L | LH (<12) ([1]; 7 Nov. 2014, 15 Sep. 2014 11): <0.3 | FSH (<12) ([1]; 7 Nov. 2014, 15 Sep. 2014 14): <0.1 | ANA (<1) ([1]; 7 Nov. 2014, 15 Sep. 2014 >32 out of range): 26↑ | Total urinary protein ([1]; 14 Oct. 2014, 15 Sep. 2014 0.78): 0.15 ^2 g/L | FSH (<12) ([1]; 14 Oct. 2014, 15 Sep. 2014 14): <0.1 | ANA (<1) ([1]; 14 Oct. 2014, 15 Sep. 2014 >32 out of range): 28↑ | Total urinary protein ([1]; 23 Sep. 2014, 15 Sep. 2014 0.78): 0.75 ↑ g/L | LH (<12) ([1]; 23 Sep. 2014, 15 Sep. 2014 11): <0.3 | FSH (<12) ([1]; 23 Sep. 2014, 15 Sep. 2014 (loading dose day) 14): 2 | ANA (<1) ([1]; 25 Sep. 2014, 15 Sep. 2014 >32 out of range): 31 ↑ | Parasthesias ([1]; by 1 month of treatment, balance improved): no longer has parasthesias | Proteinuria ([1]; by 1 month, still in remission at 2 months): complete remission | Morning pain ([1]; by 8 weeks, before 3.5 hours): 0 h | Morning pain ([1]; by day 5, before 3.5 hours): 1.5 h | Morning pain ([1]; by day 10, before 3.5 hours): 0 h | Ulcers on toes and hands ([1]; by day 10 of treatment): several ulcers had healed | Foot erythema ([1]; week 8 (FIG. 8)): decreased | Function score (Good <1), final ([2]; Patient 1, 28 weeks, baseline 1.25): 1.25, 0 | Morning stiffness, final ([2]; Patient 1, 28 weeks, baseline 2.5): 2.5, 0 hrs | Swollen joint count assessed with ultrasound, final ([2]; Patient 1, 28 weeks, baseline 6): 6, 0 | Tender joint, final ([2]; Patient 1, 28 weeks, baseline 9): 9, 0 | Patient own assessment (0-100), final ([2]; Patient 1, 28 weeks, baseline 81): 81, 0 | Physician assessment (0-100), final ([2]; Patient 1, 28 weeks, baseline 85): 85, 7 | ACR % Response ([2]; Patient 1, treatment duration 28 weeks): 90% | Function score (Good <1), final ([2]; Patient 2, 15 weeks, baseline 2.0): 2.0, 0.25 | Morning stiffness, final ([2]; Patient 2, 15 weeks, baseline 9): 9, 1 hrs | Swollen joint count assessed with ultrasound, final [2, 6]: 17, 2 | Tender joint, final [2, 6]: 17, 3 | Patient own assessment (0-100), final [2, 7]: 90, 35 | Physician assessment (0-100), final [2, 7]: 90, 40 | ACR % Response ([2]; Patient 2, treatment duration 15 weeks): 60% | ACR % Response ([2]; Patient 3, 4 wks): 30% | ACR % Response ([2]; Patient 3, 8 wks): 40% | Function score (Good <1), final ([2]; Patient 3, 12 weeks, baseline 1.75): 1.75, 0.63 | Morning stiffness, final ([2]; Patient 3, 12 weeks, baseline 7): 7, ½ | Swollen joint count assessed with ultrasound, final ([2]; Patient 3, 12 weeks, baseline 23): 23, 4 | Tender joint, final ([2]; Patient 3, 12 weeks, baseline 26): 26, 11 | Patient own assessment (0-100), final ([2]; Patient 3, 12 weeks, baseline 50): 50, 30 | Physician assessment (0-100), final ([2]; Patient 3, 12 weeks, baseline 90): 90, 30 | ACR % Response ([2]; Patient 3, 12 wks): 50% | ACR % Response ([2]; Patient 3, treatment duration 12 weeks): 50% | ACR % Response ([2]; Patient 4, 3½ wks): 20% | Function score (Good <1), final ([2]; Patient 4, 9 weeks, baseline 0.88): 0.88, 0.38 | Morning stiffness, final ([2]; Patient 4, 9 weeks, baseline 7): 7, 3 hrs | Swollen joint count assessed with ultrasound, final ([2]; Patient 4, 9 weeks, baseline 24): 24, 3 | Tender joint, final ([2]; Patient 4, 9 weeks, baseline 28): 28, 11 | Physician assessment (0-100), final ([2]; Patient 4, 9 weeks, baseline 80): 80, 40 | Patient own assessment (0-100), final ([2]; Patient 4, 9 weeks, baseline 90): 90, 50 | ACR % Response ([2]; Patient 4, 9 wks): 50% | ACR % Response ([2]; Patient 4, treatment duration 9 weeks): 50% | Function score (Good <1), final ([2]; Patient 5, 7 weeks, baseline 1.29): 1.29, 0.88 | Morning stiffness, final ([2]; Patient 5, 7 weeks, baseline 2.5): 2.5, ¾ | Swollen joint count assessed with ultrasound, final ([2]; Patient 5, 7 weeks, baseline 10): 10, 2 | Tender joint, final ([2]; Patient 5, 7 weeks, baseline 12): 12, 0 | Physician assessment (0-100), final ([2]; Patient 5, 7 weeks, baseline 70): 70, 20 | Patient own assessment (0-100), final ([2]; Patient 5, 7 weeks, baseline 88, footnote: muscular pain in arms): 88, 88^3 | Power Doppler (inflammatory activity) on ultrasound of shoulder and MCP 4 joints ([2]; Patient 5, after treatment, power Doppler present before (FIG. 2)): no power Doppler | ACR % Response ([2]; Patient 5, treatment duration 7 weeks): 30% | Function score (Good <1), final ([2]; Patient 6, 36 weeks, baseline 1.5): 1.5, 0.625 | Morning stiffness, final ([2]; Patient 6, 36 weeks, baseline 2): 2, 0 hrs | Swollen joint count assessed with ultrasound, final ([2]; Patient 6, 36 weeks, baseline 16): 16, 0 | Tender joint, final ([2]; Patient 6, 36 weeks, baseline 24): 24, 0 | Patient own assessment (0-100), final ([2]; Patient 6, 36 weeks, baseline 60): 60, 7 | Physician assessment (0-100), final ([2]; Patient 6, 36 weeks, baseline 90): 90, 7 | Effusion over the right wrist on ultrasound ([2]; Patient 6, by 3.5 weeks of degarelix, large effusion before (FIG. 4)): much smaller | ACR % Response ([2]; Patient 6, treatment duration 36 weeks): 80% | Disease activity score ([3]; 21.11.14, degarelix after methotrexate stopped 03.10.14): 5.7 | Disease activity score ([3]; 29.9.14, degarelix with methotrexate 10 mg weekly): 5.1 | ACR response achieved ([3]; by 29.09.14 (start 16.06.14), with stable concomitant methotrexate and prednisolone): ACR60 | HAQ DI ([4]; 5 weeks): 1.38 | Digital tip ulcers/pitting scars ([4]; 5 weeks): 2 | Modified Rodnan Skin Score ([4]; 5 weeks): 40 | VAS Fatigue ([4]; 5 weeks): 75 | VAS Fingertip pain/pitting scars/ulcers ([4]; 5 weeks): 40 | VAS Gastrointestinal Symptoms ([4]; 5 weeks): 80 | VAS Global ([4]; 5 weeks): 40 | VAS Lung/dyspnea ([4]; 5 weeks): 80 | VAS Pain ([4]; 5 weeks): 10 | VAS Raynauds/vascular ([4]; 5 weeks): 40 | Sleep ([4]; 5 weeks): 5 hrs/night | HAQ DI ([4]; 6 weeks): 1.38 | Digital tip ulcers/pitting scars ([4]; 6 weeks): 2 | Modified Rodnan Skin Score ([4]; 6 weeks): 40 | VAS Fatigue ([4]; 6 weeks): 60 | VAS Fingertip pain/pitting scars/ulcers ([4]; 6 weeks): 30 | VAS Gastrointestinal Symptoms ([4]; 6 weeks): 60 | VAS Global ([4]; 6 weeks): 40 | VAS Lung/dyspnea ([4]; 6 weeks): 50 | VAS Pain ([4]; 6 weeks): 10 | VAS Raynauds/vascular ([4]; 6 weeks): 30 | Sleep ([4]; 6 weeks): 5.5 hrs/night | Bone mineral density in hips ([5]; Patient 1, first time in 3.5 years, no osteoporosis therapy (FIG. 9)): improvement | Bone mineral density in hips ([5]; Patient 2, first time in 4.5 years (FIG. 10)): improvement
